Data from ChEMBL document CHEMBL1201862, “PubChem BioAssay data set” (2004).
Active and inactive are the calls of the source.

Columns and labels:
Cannabinoid receptor 2 [1] = target: T1, Cannabinoid receptor 2 (Homo sapiens, UniProt P34972); experiment: SAR analysis of antagonists of the Cannabinoid Receptor 2 using an Image-Based Assay - Set 2. [Related pubchem assays (depositor defined):AID1961, AID1965]; type: functional
[2] = target: G-protein coupled receptor 55 (Homo sapiens, UniProt Q9Y2T6); experiment: SAR analysis of selective Agonists of GPR55 using an Image-Based Assay - Set 2. [Related pubchem assays (depositor defined):AID1961, AID1965]; type: functional
Cannabinoid receptor 2 [3] = target: T1, Cannabinoid receptor 2; experiment: SAR analysis of agonists of the Cannabinoid Receptor 2 using an Image-Based Assay - Set 2. [Related pubchem assays (depositor defined):AID1961, AID1965]; type: functional
[4] = target: T2, G-protein coupled receptor 35 (Homo sapiens, UniProt Q9HC97); experiment: SAR analysis of Agonists of the GPR35 Receptor using an Image-Based Assay - Set 3. [Related pubchem assays (depositor defined):AID1961, AID1965]; type: functional
Cannabinoid receptor 1 [5] = target: T3, Cannabinoid receptor 1 (Homo sapiens, UniProt P21554); experiment: SAR analysis of antagonists of the Cannabinoid Receptor 1 using an Image-Based Assay - Set 3. [Related pubchem assays (depositor defined):AID1961, AID1965]; type: functional
Cannabinoid receptor 1 [6] = target: T3, Cannabinoid receptor 1; experiment: SAR analysis of agonists of the Cannabinoid Receptor 1 using an Image-Based Assay - Set 3. [Related pubchem assays (depositor defined):AID1961, AID1965]; type: functional
[7] = target: T2, G-protein coupled receptor 35; experiment: SAR analysis of Antagonists of the GPR35 Receptor using an Image-Based Assay - Set 4. [Related pubchem assays (depositor defined):[…]]; type: functional
[8] = target: T4, Sphingosine 1-phosphate receptor 4 (Homo sapiens, UniProt O95977); experiment: Late-stage fluorescence dose response cell-based assay to identify agonists of the Sphingosine 1-Phosphate Receptor 4 (S1P4): purchased compounds EC50. [Related pubchem assays (depositor defined):AID1509, AID1523, AID1563, AID1686, AID1701, AID1801]; type: functional
T4 sequence (O95977 whole entry): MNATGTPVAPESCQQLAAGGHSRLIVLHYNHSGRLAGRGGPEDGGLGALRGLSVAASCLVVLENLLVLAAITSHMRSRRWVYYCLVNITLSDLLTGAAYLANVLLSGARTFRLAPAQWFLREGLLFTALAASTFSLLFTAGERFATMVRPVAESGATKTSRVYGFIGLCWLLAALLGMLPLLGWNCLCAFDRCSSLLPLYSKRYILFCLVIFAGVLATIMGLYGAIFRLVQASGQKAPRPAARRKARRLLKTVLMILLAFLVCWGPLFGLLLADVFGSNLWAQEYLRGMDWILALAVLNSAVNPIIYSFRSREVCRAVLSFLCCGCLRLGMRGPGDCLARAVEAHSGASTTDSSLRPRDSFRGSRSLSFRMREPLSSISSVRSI

BJ [9] = experiment: cytotoxicity toward BJ-TERT fibroblasts, dose response, cell-based, RAS-independent, luminescence (AID 1933); type: functional; conditions: Homo sapiens
[10] = target: T5, Heat shock factor protein 1 (Mus musculus, UniProt P38532); experiment: inhibition of MG132-induced HSE-luciferase signal, confirmation, cell-based, NIH3T3, luminescence, dose retest (AID 2382); type: functional;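 further: NIH3T3 fibroblasts with HSF1-driven luciferase reporter stressed by proteasome inhibitor MG132; luminescence from HSF1-driven luciferase expression after 8 hours of MG132 stress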
T5 sequence (P38532 whole entry): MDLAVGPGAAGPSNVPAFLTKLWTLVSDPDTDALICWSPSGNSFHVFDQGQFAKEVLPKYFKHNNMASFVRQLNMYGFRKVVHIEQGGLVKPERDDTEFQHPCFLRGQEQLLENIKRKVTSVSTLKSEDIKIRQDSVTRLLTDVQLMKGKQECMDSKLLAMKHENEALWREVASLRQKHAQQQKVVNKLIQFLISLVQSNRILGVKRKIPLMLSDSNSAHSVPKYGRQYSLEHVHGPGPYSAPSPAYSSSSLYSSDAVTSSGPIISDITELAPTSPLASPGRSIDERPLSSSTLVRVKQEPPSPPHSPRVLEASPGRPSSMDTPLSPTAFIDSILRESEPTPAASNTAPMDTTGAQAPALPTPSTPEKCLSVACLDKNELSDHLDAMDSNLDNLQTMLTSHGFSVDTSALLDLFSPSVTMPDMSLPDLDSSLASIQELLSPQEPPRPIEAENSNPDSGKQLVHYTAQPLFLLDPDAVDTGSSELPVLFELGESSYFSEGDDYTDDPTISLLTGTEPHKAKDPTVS

BJ [11] = experiment: cells; type: functional, cell-based; conditions: Homo sapiens
[12] = microbe, parasite or virus in culture; type: functional; conditions: Mycobacterium tuberculosis
BJ [13] = experiment: cytotoxicity toward BJ-TERT-LT-ST fibroblasts, dose response, cell-based, RAS-independent, luminescence (AID 1935); type: functional; conditions: Homo sapiens;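 further: BJ fibroblasts immortalized with TERT plus LT and ST oncogenes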
[14] = cytotoxicity toward DRD oncogenic fibroblasts, dose response, cell-based, non-viral oncogenic, luminescence (AID 1934); type: functional; conditions: Homo sapiens
[15] = Intein inhibitors as potential Tuberculosis drugs, a cytotoxicity screen. [Related pubchem assays (depositor defined):AID2221, AID2223, AID434968, AID435010, AID449749, AID449750, AID489010]; type: functional
[16] = target: T6, Replicative DNA helicase DnaB (Mycobacterium tuberculosis, UniProt P9WMR3); experiment: DnaB intein splicing inhibitors, dose response, biochemical, cell-free fluorescence (AID 449749); type: functional
T6 sequence (P9WMR3 whole entry): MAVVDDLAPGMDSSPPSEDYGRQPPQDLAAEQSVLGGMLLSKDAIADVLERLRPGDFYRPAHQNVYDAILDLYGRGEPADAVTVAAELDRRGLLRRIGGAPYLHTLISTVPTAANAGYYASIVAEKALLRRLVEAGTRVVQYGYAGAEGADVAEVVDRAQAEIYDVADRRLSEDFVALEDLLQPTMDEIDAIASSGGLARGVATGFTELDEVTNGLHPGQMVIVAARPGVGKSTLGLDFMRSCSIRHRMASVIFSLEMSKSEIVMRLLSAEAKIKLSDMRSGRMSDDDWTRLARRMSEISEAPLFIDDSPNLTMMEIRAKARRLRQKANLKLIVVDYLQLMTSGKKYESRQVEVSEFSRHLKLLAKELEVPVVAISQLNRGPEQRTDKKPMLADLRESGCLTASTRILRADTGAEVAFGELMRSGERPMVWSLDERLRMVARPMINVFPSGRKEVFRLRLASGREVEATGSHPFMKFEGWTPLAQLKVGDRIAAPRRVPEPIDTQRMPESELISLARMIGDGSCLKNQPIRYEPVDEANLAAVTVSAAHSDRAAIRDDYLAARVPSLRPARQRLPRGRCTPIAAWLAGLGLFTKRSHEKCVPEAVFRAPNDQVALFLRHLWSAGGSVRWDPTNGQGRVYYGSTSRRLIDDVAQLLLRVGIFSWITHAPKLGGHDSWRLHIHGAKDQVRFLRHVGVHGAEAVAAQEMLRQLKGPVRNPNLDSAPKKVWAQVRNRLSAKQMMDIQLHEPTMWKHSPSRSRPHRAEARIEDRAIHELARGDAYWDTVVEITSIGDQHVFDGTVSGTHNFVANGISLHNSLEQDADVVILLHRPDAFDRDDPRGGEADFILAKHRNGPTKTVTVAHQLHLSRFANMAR

BJ [17] = experiment: cytotoxicity toward Ras-transformed BJeLR fibroblasts, dose response, cell-based, alamar blue fluorescence, cherrypicked samples (AID 2631); type: functional; conditions: Homo sapiens;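 further: confirmatory dose-response assay in RAS-dependent BJ fibroblasts engineered with TERT, LT and ST, with cytotoxicity read by fluorescence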
Protein RecA = target: T7, Protein RecA (Mycobacterium tuberculosis, UniProt P9WHJ3); experiment: Fluorescence Cell-Free Homogeneous Dose Retest to Identify Inhibitors of RecA-Intein Splicing Activity. [Related pubchem assays (depositor defined):AID2097, AID2223, AID489010, AID492950]; type: functional
T7 sequence (P9WHJ3 whole entry): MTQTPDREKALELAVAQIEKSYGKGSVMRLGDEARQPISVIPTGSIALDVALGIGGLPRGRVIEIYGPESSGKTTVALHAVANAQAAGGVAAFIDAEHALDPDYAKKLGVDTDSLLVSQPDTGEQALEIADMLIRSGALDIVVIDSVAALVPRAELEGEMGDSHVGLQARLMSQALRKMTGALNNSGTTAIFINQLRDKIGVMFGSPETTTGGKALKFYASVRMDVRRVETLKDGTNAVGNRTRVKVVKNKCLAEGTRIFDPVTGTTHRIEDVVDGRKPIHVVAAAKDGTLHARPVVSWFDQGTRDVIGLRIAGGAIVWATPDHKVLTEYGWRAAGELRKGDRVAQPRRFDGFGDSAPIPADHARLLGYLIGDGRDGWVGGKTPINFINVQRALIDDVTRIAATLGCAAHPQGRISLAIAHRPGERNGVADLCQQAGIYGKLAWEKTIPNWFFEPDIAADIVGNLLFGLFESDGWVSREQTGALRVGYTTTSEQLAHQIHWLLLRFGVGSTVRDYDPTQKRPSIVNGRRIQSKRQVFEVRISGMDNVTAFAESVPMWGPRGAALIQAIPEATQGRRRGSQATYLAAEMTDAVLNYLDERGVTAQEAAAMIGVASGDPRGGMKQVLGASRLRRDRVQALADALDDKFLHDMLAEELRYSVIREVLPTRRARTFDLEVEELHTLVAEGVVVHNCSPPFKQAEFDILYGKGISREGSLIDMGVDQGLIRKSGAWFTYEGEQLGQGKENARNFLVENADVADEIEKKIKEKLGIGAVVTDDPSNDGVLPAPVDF

T2 sequence (Q9HC97 whole entry): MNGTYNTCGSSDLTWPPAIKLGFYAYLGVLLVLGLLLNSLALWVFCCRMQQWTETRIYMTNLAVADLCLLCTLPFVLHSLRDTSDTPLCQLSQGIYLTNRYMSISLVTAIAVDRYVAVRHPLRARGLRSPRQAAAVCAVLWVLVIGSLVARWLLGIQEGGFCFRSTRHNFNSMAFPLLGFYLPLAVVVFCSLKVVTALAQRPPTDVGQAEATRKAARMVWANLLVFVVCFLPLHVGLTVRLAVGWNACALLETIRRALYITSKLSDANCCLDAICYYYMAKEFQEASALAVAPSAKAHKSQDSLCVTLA
T3 sequence (P21554 whole entry): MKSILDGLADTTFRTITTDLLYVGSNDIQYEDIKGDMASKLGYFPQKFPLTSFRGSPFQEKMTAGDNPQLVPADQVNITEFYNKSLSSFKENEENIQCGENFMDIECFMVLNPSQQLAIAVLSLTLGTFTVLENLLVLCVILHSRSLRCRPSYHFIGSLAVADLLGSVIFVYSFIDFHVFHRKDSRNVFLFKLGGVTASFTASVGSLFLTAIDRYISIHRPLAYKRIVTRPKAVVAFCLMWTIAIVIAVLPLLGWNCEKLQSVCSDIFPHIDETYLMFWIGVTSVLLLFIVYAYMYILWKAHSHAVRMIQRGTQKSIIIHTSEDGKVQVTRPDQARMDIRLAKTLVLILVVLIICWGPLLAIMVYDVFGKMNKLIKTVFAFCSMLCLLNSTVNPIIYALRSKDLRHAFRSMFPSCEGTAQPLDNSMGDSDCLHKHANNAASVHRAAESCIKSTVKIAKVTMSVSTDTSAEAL
T1 sequence (P34972 whole entry): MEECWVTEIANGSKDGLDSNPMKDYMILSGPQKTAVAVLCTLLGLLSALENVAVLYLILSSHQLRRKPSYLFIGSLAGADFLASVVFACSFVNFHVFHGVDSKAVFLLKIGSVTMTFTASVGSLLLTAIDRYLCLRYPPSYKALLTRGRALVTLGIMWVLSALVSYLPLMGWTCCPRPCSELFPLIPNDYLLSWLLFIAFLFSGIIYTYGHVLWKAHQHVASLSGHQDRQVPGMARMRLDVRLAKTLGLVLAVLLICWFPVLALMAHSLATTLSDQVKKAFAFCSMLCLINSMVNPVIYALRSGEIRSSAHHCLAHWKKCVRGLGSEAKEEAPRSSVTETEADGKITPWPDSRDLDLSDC
Sequence of G-protein coupled receptor 55 (Q9Y2T6 whole entry): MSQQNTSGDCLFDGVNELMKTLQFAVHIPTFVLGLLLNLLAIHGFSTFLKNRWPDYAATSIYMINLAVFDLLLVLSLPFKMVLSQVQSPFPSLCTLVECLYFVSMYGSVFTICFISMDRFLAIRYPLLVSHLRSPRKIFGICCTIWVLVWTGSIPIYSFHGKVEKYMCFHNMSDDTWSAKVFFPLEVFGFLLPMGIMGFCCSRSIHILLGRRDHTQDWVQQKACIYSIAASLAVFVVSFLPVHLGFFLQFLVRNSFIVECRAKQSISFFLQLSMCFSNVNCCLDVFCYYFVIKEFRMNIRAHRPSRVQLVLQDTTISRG

SMILES: Cc1ccc(-c2csc(NC(=O)CSc3nnc4cc(C)c5ccccc5n34)n2)cc1
- IC50 (Cannabinoid receptor 2 [1]): > 32 µM (inactive)
- EC50 [2]: 11.5 µM (inactive)
- EC50 (Cannabinoid receptor 2 [3]): > 32 µM (inactive)
- EC50 [4]: > 32 µM (inactive)
- IC50 (Cannabinoid receptor 1 [5]): > 32 µM (inactive)
- EC50 (Cannabinoid receptor 1 [6]): > 32 µM (inactive)
- IC50 [7]: > 32 µM (inactive)

SMILES: Cc1ccc(OCC(=O)Nc2cccc(Cl)c2)c([N+](=O)[O-])n1
- EC50 [8]: > 50 µM (inactive)

SMILES: COc1cc2c(cc1OC)C(c1cc(Br)ccc1F)N(C(=O)CCl)CC2 (stereo not drawn)
- EC50 (BJ [9]): 2.7 µM (inconclusive)
- EC50 [10]: 3.09 µM (active)
- EC50 (BJ [11]): 6.1 µM (active)
- CC50 [12]: 5.64 µM (active)
- EC50 (BJ [13]): 5.02 µM (inconclusive)
- EC50 [14]: 5.12 µM (active)
- CC50 [15]: 4.2 µM (active)
- AC50 [16]: 4.29 µM (active)
- EC50 (BJ [17]): 1.41 µM (active)
- EC50 (Protein RecA): 0.8 µM (active)
